Measurements from ChEMBL document CHEMBL3994622, “Design and synthesis of new RAF kinase-inhibiting antiproliferative quinoline derivatives. Part 2: Diarylurea derivatives” (Eur J Med Chem, 2017).

What was measured:
Assay type in all cases: functional
SK-MEL-2 [1] = experiment: Growth inhibition of human SK-MEL-2 cells assessed as cell growth at 0.003 uM incubated for 48 hrs by sulforhodamine B assay relative to control; conditions: SK-MEL-2, 48 h, read-out: Activity
SK-MEL-28 [2] = experiment: Growth inhibition of human SK-MEL-28 cells assessed as cell growth at 0.003 uM incubated for 48 hrs by sulforhodamine B assay relative to control; conditions: SK-MEL-28, 48 h, read-out: Activity
UACC-62 = experiment: Growth inhibition of human UACC62 cells assessed as cell growth at 0.003 uM incubated for 48 hrs by sulforhodamine B assay relative to control; conditions: UACC-62, 48 h, read-out: Activity
OVCAR-5 = experiment: Growth inhibition of human OVCAR5 cells assessed as cell growth at 0.003 uM incubated for 48 hrs by sulforhodamine B assay relative to control; conditions: OVCAR-5, 48 h, read-out: Activity
786-0 = experiment: Growth inhibition of human 786-0 cells assessed as cell growth at 0.003 uM incubated for 48 hrs by sulforhodamine B assay relative to control; conditions: 786-0, 48 h, read-out: Activity
CAKI-1 = experiment: Growth inhibition of human Caki1 cells assessed as cell growth at 0.003 uM incubated for 48 hrs by sulforhodamine B assay relative to control; conditions: CAKI-1, 48 h, read-out: Activity
NCI-H23 = experiment: Growth inhibition of human NCI-H23 cells assessed as cell growth at 0.03 uM incubated for 48 hrs by sulforhodamine B assay relative to control; conditions: NCI-H23, 48 h, read-out: Activity
SF-268 = experiment: Growth inhibition of human SF268 cells assessed as cell growth at 0.03 uM incubated for 48 hrs by sulforhodamine B assay relative to control; conditions: SF-268, 48 h, read-out: Activity
M14 = experiment: Growth inhibition of human M14 cells assessed as cell growth at 0.03 uM incubated for 48 hrs by sulforhodamine B assay relative to control; conditions: M14, 48 h, read-out: Activity
A498 = experiment: Growth inhibition of human A498 cells assessed as cell growth at 0.03 uM incubated for 48 hrs by sulforhodamine B assay relative to control; conditions: A498, 48 h, read-out: Activity
MOLT-4 = experiment: Growth inhibition of human MOLT4 cells assessed as cell growth at 0.3 uM incubated for 48 hrs by sulforhodamine B assay relative to control; conditions: MOLT-4, 48 h, read-out: Activity
OVCAR-3 [3] = experiment: Growth inhibition of human OVCAR3 cells assessed as cell growth at 0.3 uM incubated for 48 hrs by sulforhodamine B assay relative to control; conditions: OVCAR-3, 48 h, read-out: Activity
OVCAR-8 [4] = experiment: Growth inhibition of human OVCAR8 cells assessed as cell growth at 0.3 uM incubated for 48 hrs by sulforhodamine B assay relative to control; conditions: OVCAR-8, 48 h, read-out: Activity
DU-145 = experiment: Growth inhibition of human DU145 cells assessed as cell growth at 0.3 uM incubated for 48 hrs by sulforhodamine B assay relative to control; conditions: DU-145, 48 h, read-out: Activity
HL-60(TB) [5] = experiment: Growth inhibition of human HL-60(TB) cells assessed as cell growth at 3 uM incubated for 48 hrs by sulforhodamine B assay relative to control; conditions: HL-60, 48 h, read-out: Activity
NCI-H322M [6] = experiment: Growth inhibition of human NCI-H322M cells assessed as cell growth at 3 uM incubated for 48 hrs by sulforhodamine B assay relative to control; conditions: read-out: Activity
SW-620 = experiment: Growth inhibition of human SW620 cells assessed as cell growth at 3 uM incubated for 48 hrs by sulforhodamine B assay relative to control; conditions: SW-620, 48 h, read-out: Activity
SK-OV-3 = experiment: Growth inhibition of human SKOV3 cells assessed as cell growth at 3 uM incubated for 48 hrs by sulforhodamine B assay relative to control; conditions: SK-OV-3, 48 h, read-out: Activity
PC-3 = experiment: Growth inhibition of human PC3 cells assessed as cell growth at 3 uM incubated for 48 hrs by sulforhodamine B assay relative to control; conditions: PC-3, 48 h, read-out: Activity
OVCAR-8 [7] = experiment: Growth inhibition of human OVCAR8 cells assessed as cell growth at 30 uM incubated for 48 hrs by sulforhodamine B assay relative to control; conditions: OVCAR-8, 48 h, read-out: Activity
NCI-H322M [8] = experiment: Growth inhibition of human NCI-H322M cells assessed as cell growth at 10 uM incubated for 48 hrs by sulforhodamine B assay relative to control; conditions: read-out: Activity
HCT-116 = experiment: Growth inhibition of human HCT116 cells assessed as cell growth at 0.01 uM incubated for 48 hrs by sulforhodamine B assay relative to control; conditions: HCT-116, 48 h, read-out: Activity
HL-60(TB) [9] = experiment: Growth inhibition of human HL-60(TB) cells assessed as cell growth at 0.1 uM incubated for 48 hrs by sulforhodamine B assay relative to control; conditions: HL-60, 48 h, read-out: Activity
NCI-H460 = experiment: Growth inhibition of human NCI-H460 cells assessed as cell growth at 0.1 uM incubated for 48 hrs by sulforhodamine B assay relative to control; conditions: NCI-H460, 48 h, read-out: Activity
NCI-H522 = experiment: Growth inhibition of human NCI-H522 cells assessed as cell growth at 0.1 uM incubated for 48 hrs by sulforhodamine B assay relative to control; conditions: NCI-H522, 48 h, read-out: Activity
LOX IMVI = experiment: Growth inhibition of human LOXIMVI cells assessed as cell growth at 0.1 uM incubated for 48 hrs by sulforhodamine B assay relative to control; conditions: read-out: Activity
SK-MEL-2 [10] = experiment: Growth inhibition of human SK-MEL-2 cells assessed as cell growth at 0.1 uM incubated for 48 hrs by sulforhodamine B assay relative to control; conditions: SK-MEL-2, 48 h, read-out: Activity
Malme-3M = experiment: Growth inhibition of human MALME-3M cells assessed as cell growth at 1 uM incubated for 48 hrs by sulforhodamine B assay relative to control; conditions: read-out: Activity
SK-MEL-5 = experiment: Growth inhibition of human SK-MEL-5 cells assessed as cell growth at 1 uM incubated for 48 hrs by sulforhodamine B assay relative to control; conditions: SK-MEL-5, 48 h, read-out: Activity
SK-MEL-2 [11] = experiment: Growth inhibition of human SK-MEL-2 cells assessed as cell growth at 10 uM incubated for 48 hrs by sulforhodamine B assay relative to control; conditions: SK-MEL-2, 48 h, read-out: Activity
SF-539 = experiment: Growth inhibition of human SF539 cells assessed as cell growth at 100 uM incubated for 48 hrs by sulforhodamine B assay relative to control; conditions: SF-539, 48 h, read-out: Activity
SK-MEL-28 [12] = experiment: Growth inhibition of human SK-MEL-28 cells assessed as cell growth at 100 uM incubated for 48 hrs by sulforhodamine B assay relative to control; conditions: SK-MEL-28, 48 h, read-out: Activity
OVCAR-3 [13] = experiment: Growth inhibition of human OVCAR3 cells assessed as cell growth at 100 uM incubated for 48 hrs by sulforhodamine B assay relative to control; conditions: OVCAR-3, 48 h, read-out: Activity
UO-31 = experiment: Growth inhibition of human UO31 cells assessed as cell growth at 100 uM incubated for 48 hrs by sulforhodamine B assay relative to control; conditions: UO-31, 48 h, read-out: Activity

## COc1cc2cc(Oc3ccc(NC(=O)Nc4ccc(Cl)c(C(F)(F)F)c4)cc3)c(C)nc2cc1OC
SK-MEL-2 [1]
  growth at 0.003 µM: 96%
SK-MEL-28 [2]
  growth at 0.003 µM: 99%
UACC-62
  growth at 0.003 µM: 96%
OVCAR-5
  growth at 0.003 µM: 96%
786-0
  growth at 0.003 µM: 97%
CAKI-1
  growth at 0.003 µM: 93%
NCI-H23
  growth at 0.03 µM: 93%
SF-268
  growth at 0.03 µM: 91%
M14
  growth at 0.03 µM: 82%
A498
  growth at 0.03 µM: 68%
MOLT-4
  growth at 0.3 µM: 98%
OVCAR-3 [3]
  growth at 0.3 µM: 95%
OVCAR-8 [4]
  growth at 0.3 µM: 96%
DU-145
  growth at 0.3 µM: 95%
HL-60(TB) [5]
  growth at 3 µM: -2%
NCI-H322M [6]
  growth at 3 µM: 35%
SW-620
  growth at 3 µM: 15%
SK-OV-3
  growth at 3 µM: 17%
PC-3
  growth at 3 µM: -3%
OVCAR-8 [7]
  growth at 30 µM: -32%

## COc1cc2cc(Oc3ccc(NC(=O)Nc4cc(C(F)(F)F)cc(C(F)(F)F)c4)cc3)c(C)nc2cc1OC
NCI-H322M [8]
  growth at 10 µM: 14.9%
HCT-116
  growth at 0.01 µM: 97%
HL-60(TB) [9]
  growth at 0.1 µM: 84%
NCI-H460
  growth at 0.1 µM: 107%
NCI-H522
  growth at 0.1 µM: 77%
LOX IMVI
  growth at 0.1 µM: 95%
SK-MEL-2 [10]
  growth at 0.1 µM: 94%
Malme-3M
  growth at 1 µM: 54%
SK-MEL-5
  growth at 1 µM: 84%
SK-MEL-2 [11]
  growth at 10 µM: -51%
SF-539
  growth at 100 µM: -74%
SK-MEL-28 [12]
  growth at 100 µM: -73%
OVCAR-3 [13]
  growth at 100 µM: -89%
UO-31
  growth at 100 µM: -89%

## COc1cc2cc(Oc3ccc(NC(=O)Nc4ccc(Cl)c(Cl)c4)cc3)c(C)nc2cc1OC
HCT-116
  growth at 0.01 µM: 89%
HL-60(TB) [9]
  growth at 0.1 µM: 109%
NCI-H460
  growth at 0.1 µM: 103%
NCI-H522
  growth at 0.1 µM: 99%
LOX IMVI
  growth at 0.1 µM: 96%
SK-MEL-2 [10]
  growth at 0.1 µM: 116%
Malme-3M
  growth at 1 µM: 109%
SK-MEL-5
  growth at 1 µM: 91%
SK-MEL-2 [11]
  growth at 10 µM: -27%
SF-539
  growth at 100 µM: -54%
SK-MEL-28 [12]
  growth at 100 µM: -77%
OVCAR-3 [13]
  growth at 100 µM: -98%
UO-31
  growth at 100 µM: -57%

## Cc1nc2cc(O)c(O)cc2cc1Oc1ccc(NC(=O)Nc2ccc(Cl)c(Cl)c2)cc1
NCI-H322M [8]
  growth at 10 µM: 94%
SK-MEL-2 [1]
  growth at 0.003 µM: 107%
SK-MEL-28 [2]
  growth at 0.003 µM: 90%
UACC-62
  growth at 0.003 µM: 96%
OVCAR-5
  growth at 0.003 µM: 102%
786-0
  growth at 0.003 µM: 98%
CAKI-1
  growth at 0.003 µM: 97%
NCI-H23
  growth at 0.03 µM: 92%
SF-268
  growth at 0.03 µM: 104%
M14
  growth at 0.03 µM: 89%
A498
  growth at 0.03 µM: 75%
MOLT-4
  growth at 0.3 µM: 106%
OVCAR-3 [3]
  growth at 0.3 µM: 109%
OVCAR-8 [4]
  growth at 0.3 µM: 94%
DU-145
  growth at 0.3 µM: 106%
HL-60(TB) [5]
  growth at 3 µM: 106%
NCI-H322M [6]
  growth at 3 µM: 105%
SW-620
  growth at 3 µM: 57%
SK-OV-3
  growth at 3 µM: 103%
PC-3
  growth at 3 µM: 56%
OVCAR-8 [7]
  growth at 30 µM: 1%
